Reference: patent publication US8168400B2, “Methods and kits for detection of thromboxane A2 metabolites” (Corgenix Medical Corporation, priority 2005, dated 2012)
Entries after “also recorded” stand apart in the source; their conditions may differ.

Columns and labels:
[1] = test system: monoclonal antibodies of the present invention (anti-11 dhTxB2 / 11 dh2,3dTxB2 mAb); experiment: Monoclonal antibody specificity: percent cross-reactivity (enzyme-based competition assay); type: binding, mouse; conditions: for % Reactivity (cross reactivity): relative to 11 dh TxB2 = 100%
Protocol: The present invention provides a urinary 11dhTxB2 Competitive ELISA Assay. An illustrative standard curve was prepared (see FIG. 6) by spiking known amounts of 11dhTxB2 into low level urine diluted 1:5 in Tris assay buffer (0.1M Tris, 0.1% BSA) or into assay buffer alone. 100 μl of standards or actual samples (having taken known amounts of aspirin and diluted 1:5 in Tris assay buffer) was added to wells coated with goat anti-mouse antibody, followed by the addition of 50 μl of 11 dhTxB2-AP (alkaline phosphatase) tracer and 50 μl of 11 dhTxB2 mAb. The reactions were then allowed to incubate for a predetermined amount of time, typically with shaking at room temperature. In preferred embodiments the incubation is about two hours in length. Each well is then washed with a wash buffer and approximately 200 μl of substrate added (p-nitrophenyl-phosphate, pNPP). The reactions are then incubated again for approximately thirty minutes. A stop solution is added to each well, and the plate read for OD at 405 nm.
Antibody clones of the invention were tested to determine cross-reactivity against various Thromboxane A2 metabolites and other like compounds. Table 2 provides percent cross reactivity of antibodies of the present invention against these various compounds: […]

[2] = test system: urinary 11dhTxB2 (TxA2 metabolites); experiment: Urinary 11dhTxB2 competitive ELISA in subjects on aspirin; type: in vivo, human; conditions: for urinary 11dhTxB2 per mg creatinine, average patient value: healthy no-aspirin average 1119 pg/mg
Protocol: The present invention provides a urinary 11dhTxB2 Competitive ELISA Assay. An illustrative standard curve was prepared (see FIG. 6) by spiking known amounts of 11dhTxB2 into low level urine diluted 1:5 in Tris assay buffer (0.1M Tris, 0.1% BSA) or into assay buffer alone. 100 μl of standards or actual samples (having taken known amounts of aspirin and diluted 1:5 in Tris assay buffer) was added to wells coated with goat anti-mouse antibody, followed by the addition of 50 μl of 11 dhTxB2-AP (alkaline phosphatase) tracer and 50 μl of 11 dhTxB2 mAb. The reactions were then allowed to incubate for a predetermined amount of time, typically with shaking at room temperature. In preferred embodiments the incubation is about two hours in length. Each well is then washed with a wash buffer and approximately 200 μl of substrate added (p-nitrophenyl-phosphate, pNPP). The reactions are then incubated again for approximately thirty minutes. A stop solution is added to each well, and the plate read for OD at 405 nm. Results from the assay provide for the amount of 11dhTxB2 and 11 dh2,3dTxB2 present in the sample (note that results are compared to the standard curve). The amount of the two metabolites present in the sample is indirectly proportional to the optical density read at 405 nm. For clinical samples, creatinine values are also obtained, and data from assays presented as pg metabolite/mg creatinine. Initially, 171 urine samples were taken from subjects either off aspirin or on 81 or 325 mg aspirin/day. TxA2 metabolite amounts were determined for each sample using the methods and kits of the present invention. Values were normalized for urinary dilution by dividing TxA2 metabolite amounts by creatinine concentrations. 354 urine samples from subjects either on or off aspirin therapy were run using the methods and kits of the present invention. Values were calculated and normalized for urinary dilution by dividing by creatinine concentration, and the frequency of each concentration was calculated and shown in a frequency plot, FIG. 5. Subjects on aspirin are plotted with solid bars and subjects not on aspirin are plotted using hatched bars. Positive samples are below 1500 pg/mg creatinine cutoff, whereas negative samples are those that are above the 1500 pg/mg creatinine cutoff. As shown in FIGS. 4-5, clinical data can be obtained using the above-described methods. […] The assay detection range was suitable for measurement of 11dhTxB2 in a population (62-3122 pg 11dhTxB2/mg creatinine—see FIG. 7). […] All three levels of aspirin doses are statistically significant when compared to the healthy, no aspirin controls.

platelet COX-1 = molecular target: T1, platelet COX-1 (Homo sapiens, UniProt P23219); conditions: low dose aspirin; cited from earlier work
T1 construct: host or cells: platelets (in vivo, patients on low dose aspirin)
T1 sequence (P23219 24-599): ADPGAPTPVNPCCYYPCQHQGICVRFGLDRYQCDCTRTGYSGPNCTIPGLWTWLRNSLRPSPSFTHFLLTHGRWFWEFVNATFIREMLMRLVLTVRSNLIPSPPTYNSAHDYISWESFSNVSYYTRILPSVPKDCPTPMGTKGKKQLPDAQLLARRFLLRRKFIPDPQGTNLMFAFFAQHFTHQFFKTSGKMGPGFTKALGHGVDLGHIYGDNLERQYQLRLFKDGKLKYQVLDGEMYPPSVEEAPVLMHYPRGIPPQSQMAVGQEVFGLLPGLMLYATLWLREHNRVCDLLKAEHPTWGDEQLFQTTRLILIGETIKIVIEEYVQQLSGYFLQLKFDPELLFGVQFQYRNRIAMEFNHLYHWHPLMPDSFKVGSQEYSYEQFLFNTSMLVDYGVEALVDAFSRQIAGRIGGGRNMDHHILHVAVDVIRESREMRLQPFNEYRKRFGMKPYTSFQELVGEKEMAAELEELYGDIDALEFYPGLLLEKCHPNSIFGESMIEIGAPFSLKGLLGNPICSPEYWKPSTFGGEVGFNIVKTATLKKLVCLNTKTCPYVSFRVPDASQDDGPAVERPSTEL

[3] = low dose aspirin; patients with arterial vascular disease; cited from earlier work
[4] = aspirin ingestion present, 354 urine samples in total

reactivity of the antibodies with the compound (in words) [1]	% Reactivity (cross reactivity) [1]	Structure (SMILES)	also measured
unreactive	1.93%	CCCCC[C@H](O)/C=C/[C@H]1OC(O)C[C@H](O)[C@@H]1C/C=C\CC(=O)O (stereo partly shown) [2,3 dinor TxB2]	–
unreactive	<0.01%	O=C(O)CCCCC(=O)CCC1C(O)CC(=O)C1CCC(=O)O (stereo not shown) [2,3,4,5-tetranor-20-Carboxy 13,14-dihydro-15-keto PGE2]	–
unreactive	<0.01%	O=C(O)CCCCC(=O)CCC1C(O)CC(O)C1CCC(=O)O (stereo not drawn) [2,3,4,5-tetranor-20-Carboxy 13,14-dihydro-15-keto PGF2α]	–
unreactive	<0.01%	CCCCC[C@H](O)/C=C/[C@@H]1[C@@H](CC(=O)CCCCC(=O)O)[C@@H](O)C[C@H]1O [6-keto PGF1a]	–
react; also recorded: high reactivity	100%	CCCCCC(O)C=CC1OC(=O)CC(O)C1CC=CCCCC(=O)O (stereo not shown) [11 dh TxB2, 11-dehydro Thromboxane B2]	–
react; also recorded: high reactivity	166%	CCCCCC(O)C=CC1OC(=O)CC(O)C1CC=CCC(=O)O (stereo not shown) [11-dehydro-2,3 dinor thromboxane B2]	–
unreactive	0.2%	CCCCC[C@H](O)/C=C/[C@H]1C(=O)C[C@H](O)[C@@H]1C/C=C\CCCC(=O)O [PGD2]	–
unreactive	<0.01%	CCCCC[C@H](O)/C=C/[C@H]1[C@H](O)CC(=O)[C@@H]1C/C=C\CCCC(=O)O [PGE2]	–
unreactive	0.05%	CCCCC[C@H](O)/C=C/[C@H]1OC(O)C[C@H](O)[C@@H]1C/C=C\CCCC(=O)O (stereo partly shown) [TxB2, thromboxane B2]	–
–	–	CC(=O)Oc1ccccc1C(=O)O [aspirin, acetyl salicylic acid]	urinary 11dhTxB2 per mg creatinine, average patient value ([2]; aspirin 81 mg/day): 418 pg/mg; urinary 11dhTxB2 per mg creatinine, average patient value ([2]; aspirin 162 mg/day): 471 pg/mg; urinary 11dhTxB2 per mg creatinine, average patient value ([2]; aspirin 325 mg/day): 377 pg/mg; number of urine samples Negative (>1500 pg/creatinine) [2, 4]: 16; number of urine samples Positive (<1500 pg/creatinine) [2, 4]: 251; block of platelet COX-1 activity (platelet COX-1): more than 95%; reduction of cardiovascular events [3]: ≤ 25%
